Row | Compound | melting point [°C]
1 | [H]/N=C(OC)/C(=N/OC)c1ccccc1CON=C(C)c1ccc(Cl)cc1 [Compound 1.13] | 73 to 75
2 | CO/N=C(N)/C(=N/OC)c1ccccc1CO/N=C(\C)c1ccc(Cl)cc1 [Compound 3.101] | 76 to 78
3 | CNC(=S)/C(=N/OC)c1ccccc1CON=C(C)c1ccc(Cl)cc1 [Compound 4.10] | 88 to 89
4 | CNC(=S)/C(=N/OC)c1ccccc1CO/N=C(\C)c1cccc(C(F)(F)F)c1 [Compound 4.51, N-methyl-2-[2-(methyl(3-trifluoromethylphenyl)oximinomethyl)phenyl]-2-methoximinothioacetamide] | 100 to 106
5 | C/N=C(OC)/C(=N/OC)c1ccccc1CO/N=C(\C)c1ccc(Cl)cc1 [Example H-4, N,O-dimethyl-2-[2-(methyl(4-chlorophenyl)oximinomethyl)phenyl]2-methoximinoacetimidate] | 79 to 80

Reference: patent US6342633B1, “O-benzyl oxime ether derivatives and their use as pesticides” (Bayer Aktiengesellschaft, priority 1993, dated 2002)
